The text below walks through data of patent EP1149836B1, “Polynalbuphine derivatives” (Hu, Oliver Yoa-Pu, priority 2000, dated 2001).

SMILES strings stand for the structures. “And” between values parts separate entries of the source, which are not always exact repeats. Identical values can stand only once. Counter-ions that a name gives are not always drawn.

For data set [1] the following is noted: in vivo; cited from earlier work.
Data set [2] is described as follows: cold ethanol tail flick test, dose response and MonoNalbuphine derivative study. Particulars: rats; for maximal analgesic effect found at (dose): intramuscularly injection, Figure 4. (In general: In hot-plate and tail-flick tests a longer latency is read as antinociception.)
Procedure: Each group consisted of 6 rats, and each rat was injected once intramuscularly on the rear leg.
The dose for each rat was 25 micromole per kg, intramuscularly.
The time to stop the experiment was set at 40 seconds to prevent the tail from cold sore. No cold sores were found within 40 sec. Five minutes after the drug was given to the rat, the flick test was performed every 10 minutes or more.
Data set [3] is described as follows: pharmacokinetic study of long acting preparation in Beagle dog. On the set-up: species or system Beagle dogs. Particulars: in vivo, comparison with sebacoyl dinalbuphine ester, read-out: half life for excretion (converted).
Data set [4] in a line: analgesic effect after intramuscular injection to guinea pigs. The conditions noted are these: 500 µM/kg and 250 µM/kg, Figure 7. It is filed as in vivo, guinea pig. An excerpt: (§1) Six male Sprague Dawley rats (175 to 225 g), and six male guinea pig(200 to 250 g) were used.
Data set [5] is described as follows: analgesic effect after intramuscular injection to rats, polynalbuphine derivative study. It is filed as in vivo, Sprague Dawley rats. The procedure: In the experiment, a circulating cold ethanol bath with a temperature maintained at -20°C was set up. After dosing, the rat tail(1/3 from the tip) was immersed in the bath. The latency for the rat to flick its tail from the bath was measured to be the analgesic threshold. The effect of various opium alkaloid preparations can be determined with this test.
The analgesic effect can be calculated as follows: analgesic effect (%) = (flicking time after dosing - flicking time before dosing ) / (test terminated time - flicking time before dosing ) X 100% [formula]
as §1

The conditions of data set [6]: after continuous use for 6 months; cited from earlier work.
Data set [7] in a line: in vitro release of Nalbuphine from vehicles (dialysis bag, UV). It is filed as physicochemical. Particulars: Fig. 2, p<0.05.
A short description of data set [8]: half-life of dinalbuphine sebacoyl ester in dog blood, HPLC. The class given is in vitro ADME. The procedure:
• (a) Dinalbuphine sebacoyl ester was dissolved in acetonitrile, the concentration was 12.5 mg/ml. • (b)200 ml of whole blood was collected from dog administered with the thus formed dinalbuphine sebacoyl ester soft drug, and was added with anticoagulant.
(§2) All blood collections were analyzed by HPLC.

Data set [9] can be described thus: half-life of dinalbuphine sebacoyl ester in rabbit blood, HPLC. The class given is in vitro ADME. The procedure:
• (a) Dinalbuphine ester sebacoyl ester was dissolved in acetonitrile, the concentration was 5.2 mg/ml. • (b) 150 ml of whole blood was collected from rabbit administered with the thus formed dinalbuphine sebacoyl ester soft drug, and was added with anticoagulant.
as §2

The nature of data set [10]: pharmacokinetic study of long acting preparation in Beagle dog. The class given is in vivo, Beagle dogs. How it is done: Six Beagle dogs were used. Five Beagle dogs were intramuscularly injected with 30 mg/kg long acting sebacoyl dinalbuphine ester oily parenteral administration respectively, and another one was injected with 100 mg/kg long acting sebacoyl dinalbuphine ester oily parenteral administration. Blood samples were collected through the veins in front limbs of the dogs at 1, 2, 6, 24, 30, 48, 54, 72, 78, 96, 102, 120, 168, 192 hours. […] The relationship between time and concentration was analyzed by PCNONLIN computer program. Two-compartment model and pharmacokinetic parameters were calculated to depict absorption, distribution, metabolism, and excretion of drugs in the dogs.

Data set [11] in a line: half-life of dinalbuphine sebacoyl ester in human blood, HPLC. It is filed as in vitro ADME. How it is done:
• (a) Dinalbuphine sebacoyl ester was dissolved in acetonitrile, the concentration was 10 mg/ml. • (b) 250 ml of whole blood was collected from human administered with the thus formed dinalbuphine sebacoyl ester soft drug, and was added with anticoagulant.
as §2

Data set [12] is described as follows: clinical / estimated analgesic duration in humans. The conditions noted are these: 125 µM/ kg administered to a human body. It is filed as in vivo. The procedure: The analgesic effect was extended to 4-5 days, when the dose administered was below 125 µM/kg. […] The same level of analgesic effect for intramuscular injection to rats was required at 15.625 µM/kg(6.165 mg/kg).
Therefore, the analgesic effect is estimated 4-5 days when 125 µM/ kg of sebacoyl dinalbuphine ester is administered to a human body.
The amount of the aforesaid injection was about 10 ml. However, the analgesic effect could not be maintained 4 to 5 days even upon administration of 88 ml of Malbuphine hydrochloride because of metabolism. Besides, such parenteral volume was not ideal for a single dose. This invention made an improvement. By diluting a single dose of sebacoyl dinalbuphine in 7.15 ml sesame oil form, parenteral administration could maintain the analgesic effect 4 to 5 days.

Data set [13] can be described thus: half-life of dinalbuphine sebacoyl ester in rat blood, HPLC. The class given is in vitro ADME. The procedure: • (a) Dinalbuphine sebacoyl ester(SDN) was dissolved in acetonitrile, the concentration was 7.75 mg/ml. • (b) 250 ml of whole blood was collected from rat administered with the thus formed dinalbuphine sebacoyl ester soft drug, and was added with anticoagulant.
as §2

As to `Oc1ccc2c(c1)[C@@]13CCCC[C@@]1(O)[C@@H](C2)N(CC1CCC1)CC3` [Butorphanol], the “dose needed to elicit the same analgesic effect” value in data set [1] is 2 mg.

For `CN1CC[C@]23c4c5ccc(O)c4O[C@H]2[C@@H](O)C=C[C@H]3[C@H]1C5.Cl` [Morphine hydrochloride], in data set [2], the “maximal analgesic effect found at (dose)” value is given as 10 mg/kg.

`CN1CC[C@]23c4c5ccc(O)c4O[C@H]2[C@@H](O)C=C[C@H]3[C@H]1C5` [Morphine]: the “dose needed to elicit the same analgesic effect” value in data set [1] is listed as 10 mg.

As usually defined, the half-life is the time in which the quantity being followed falls by half. Consider `Oc1ccc2c3c1O[C@H]1[C@@H](O)CC[C@@]4(O)[C@@H](C2)N(CC2CCC2)CC[C@]314` [Nalbuphine hydrochloride], for which the half-life in data set [3] is around 60 min. Also, the analgesic effects result in [4] is “significant analgesic effects”; in data set [5] (intramuscular injection, 15.625, 62.5, 250 µM/kg, Figure 6), “significant analgesic effects”. For the same compound, the “maximal analgesic effect found at (dose)” value in data set [2] is 100 mg/kg.

For `Oc1ccc2c3c1O[C@H]1[C@@H](O)CC[C@@]4(O)[C@@H](C2)N(CC2CCC2)CC[C@]314` [Nalbuphine], the “addiction, synergistic effect and respiratory inhibition” value in [6] is “no significant addiction and synergistic effect was found, but only slight respiratory inhibition”. Besides, in [2] (25 micromole per kg intramuscularly, in sesame oil, compared with each preparation of MonoNalbuphine derivatives, Fig. 5), the analgesic duration entry was “significantly shorter”. The “amount of released Nalbuphine free base” value in data set [7] (between 17 and 28 hours) is “less in the preparation with sesame oil than with peanut oil and the phosphate buffer”. In [7] (sesame oil as the vehicle vs the other three preparations, between 1 and 11 hours), the release rate entry is “slowest release rate”.

With `O=C(CCCCCCCCC(=O)Oc1ccc2c3c1O[C@H]1[C@@H](O)CC[C@@]4(O)[C@@H](C2)N(CC2CCC2)CC[C@]314)Oc1ccc2c3c1O[C@H]1[C@@H](O)CC[C@@]4(O)[C@@H](C2)N(CC2CCC2)CC[C@]314` [sebacoyl dinalbuphine ester], the “converted time, which converts 90% dinalbuphine sebacoyl ester(SDN) into Nalbuphine” value in data set [8] (dog) was 95 min; in data set [9] (rabbit), 25 min; in data set [11] (human), 30 min; in data set [13] (rat) it was 10 min. Besides, the half-life in data set [8] (dog blood test, read-out: half life) came to 27.8 min; in [8] (dog plasma, n=3, read-out: Elimination Half-life), 27.8 ± 0.5 min; in data set [8] (dog whole blood, n=3, read-out: Elimination Half-life) it was 30.5 ± 0.8 min; in data set [8] (red blood cells, dog red blood cell, n=3, read-out: Elimination Half-life), 33.4 ± 1.4 min; in data set [9] (rabbit blood test, read-out: half life), 7 min; in [9] (rabbit plasma, n=3, mean± S.E, read-out: Elimination Half-life), 6.98 ± 0.03 min. The half-life worked out at 14.9 ± 1.3 min in data set [9] (rabbit whole blood, n=3, mean± S.E, read-out: Elimination Half-life); 26.2 ± 4.8 min in data set [9] (red blood cells, rabbit red blood cell, n=3, mean± S.E, read-out: Elimination Half-life); 9 min in [11] (human blood test, read-out: half life); 9 ± 0.4 min in data set [11] (human plasma, n=3, read-out: Elimination Half-life); 8.8 ± 0.4 min in data set [11] (human whole blood, n=3, read-out: Elimination Half-life); 7.7 ± 0.4 min in data set [11] (red blood cells, human red blood cell, n=3, read-out: Elimination Half-life). Further, the half-life in data set [13] (rat blood test, read-out: half life) was 2.8 min; in data set [13] (rat plasma, read-out: Elimination Half-life) it was 2.8 min; in data set [13] (rat whole blood, n=3, mean± S.E, read-out: Elimination Half-life), 2.2 ± 0.5 min; in data set [13] (red blood cells, rat red blood cell, n=3, mean± S.E, read-out: Elimination Half-life), 2.3 ± 0.6 min. Further, the “50% analgesic effect was extended to” value in [5] (intramuscular injection of 125 µM/kg, Figure 9) was 88 h. The analgesic effects entry in [5] (intramuscular injection, 7.8125, 31.25, 125 µM/kg, Figure 8) is given as “proportional to the dose administered”. Moreover, the “analgesic effect relative to Nalbuphine hydrochloride” value in data set [5] (intramuscular, Figure 9) is reported as 8.8 times. Further, in data set [5] (intramuscular, dose administered below 125 µM/kg), the “analgesic effect was extended to” value was in the range of 4 to 5 days. For the same compound, the MRT is 78.8 H in data set [10] (Beagle Dog 2, i.m., Dose 24.3 mg/kg); 127.2 H in data set [10] (Beagle Dog 2, i.m., Dose 81.0 mg/kg); 73.2 H in data set [10] (Beagle dogs, 30 mg/kg i.m. oily injection, Mean of five dogs); 84.3 H and 78.8 H and 61.1 H and 62.7 H and 79.1 H in data set [10] (Beagle dogs, 30 mg/kg i.m. oily injection, individual dogs 1-5, listed as SDN, 30 mg/kg). Besides, the “kinetic across two doses” value in data set [10] (Beagle dogs, Table 6 vs Table 7) is “linear kinetic”. Also, the “absorption in injection oil vehicle” value in [10] (Beagle dogs, i.m., Figures 10 and 11) is “zero order”. For the same compound, the “analgesic effect estimated (duration)” value in data set [12] is 4 to 5 days.
